# Reference: ChEMBL document CHEMBL2074069, “Drug- and estrogen-induced cholestasis through inhibition of the hepatocellular bile salt export pump (Bsep) of rat liver” (Gastroenterology, 2000)
# T1: Bile salt export pump (Rattus norvegicus, UniProt O70127)
# T1 sequence (O70127 whole entry): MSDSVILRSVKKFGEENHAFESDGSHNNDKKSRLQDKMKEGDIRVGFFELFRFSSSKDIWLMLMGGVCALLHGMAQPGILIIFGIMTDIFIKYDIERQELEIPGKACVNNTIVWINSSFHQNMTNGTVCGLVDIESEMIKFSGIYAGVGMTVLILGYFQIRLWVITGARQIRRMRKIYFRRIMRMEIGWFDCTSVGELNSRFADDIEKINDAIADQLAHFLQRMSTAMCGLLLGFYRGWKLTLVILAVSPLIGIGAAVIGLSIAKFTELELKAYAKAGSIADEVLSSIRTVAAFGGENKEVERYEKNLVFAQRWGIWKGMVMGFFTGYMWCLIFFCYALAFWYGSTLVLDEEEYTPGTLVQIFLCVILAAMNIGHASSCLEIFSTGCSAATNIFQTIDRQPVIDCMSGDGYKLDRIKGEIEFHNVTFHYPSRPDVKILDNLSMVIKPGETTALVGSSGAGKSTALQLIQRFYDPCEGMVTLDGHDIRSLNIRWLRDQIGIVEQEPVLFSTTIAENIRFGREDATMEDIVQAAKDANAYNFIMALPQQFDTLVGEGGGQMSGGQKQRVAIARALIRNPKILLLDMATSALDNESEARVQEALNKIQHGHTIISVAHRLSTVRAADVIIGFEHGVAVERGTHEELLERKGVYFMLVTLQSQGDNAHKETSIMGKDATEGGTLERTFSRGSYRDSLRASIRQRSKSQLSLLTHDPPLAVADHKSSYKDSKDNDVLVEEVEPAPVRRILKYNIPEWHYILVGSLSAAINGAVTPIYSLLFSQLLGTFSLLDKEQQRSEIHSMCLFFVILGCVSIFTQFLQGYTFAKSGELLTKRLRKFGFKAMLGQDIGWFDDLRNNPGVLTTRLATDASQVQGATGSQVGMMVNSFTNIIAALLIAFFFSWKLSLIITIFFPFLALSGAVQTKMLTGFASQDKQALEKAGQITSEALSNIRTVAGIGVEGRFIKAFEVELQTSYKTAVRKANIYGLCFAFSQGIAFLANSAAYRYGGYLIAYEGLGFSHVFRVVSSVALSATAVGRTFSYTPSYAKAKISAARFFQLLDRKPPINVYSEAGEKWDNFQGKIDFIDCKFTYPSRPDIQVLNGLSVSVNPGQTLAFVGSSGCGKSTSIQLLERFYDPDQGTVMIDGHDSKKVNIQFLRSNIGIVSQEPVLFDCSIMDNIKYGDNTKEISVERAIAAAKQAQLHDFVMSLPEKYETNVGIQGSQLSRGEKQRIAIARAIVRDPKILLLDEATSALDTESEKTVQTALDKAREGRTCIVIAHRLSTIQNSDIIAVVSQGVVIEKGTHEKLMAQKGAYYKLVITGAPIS
# Tests used:
# Bile salt export pump [1] = molecular target: T1, Bile salt export pump; test: (§1) TP_TRANSPORTER: uptake in membrane vesicles from Bsep-expressing Sf9 cells; assay type: functional
# Bile salt export pump [2] = molecular target: T1, Bile salt export pump; test: TP_TRANSPORTER: inhibition of Taurocholate uptake in membrane vesicles from Bsep-expressing Sf9 cells; assay type: functional
# [3] = molecular target: ATP-binding cassette sub-family C member 2 (Rattus norvegicus, UniProt Q63120); test: TP_TRANSPORTER: uptake in membrane vesicles from Mrp2-expressing Sf9 cells; assay type: functional, cell membranes, Membrane vesicle
# [4] = substrate: C[C@H](CCC(=O)NCCS(=O)(=O)O)[C@H]1CC[C@H]2[C@@H]3[C@H](O)C[C@@H]4C[C@H](O)CC[C@]4(C)[C@H]3CC[C@]12C; test: as §1; assay type: functional
# [5] = substrate: C[C@H](CCC(=O)NCCS(=O)(=O)O)[C@H]1CC[C@H]2[C@@H]3[C@@H](O)C[C@@H]4C[C@H](O)CC[C@]4(C)[C@H]3CC[C@]12C; test: as §1; assay type: functional
# Sequence of ATP-binding cassette sub-family C member 2 (Q63120 whole entry): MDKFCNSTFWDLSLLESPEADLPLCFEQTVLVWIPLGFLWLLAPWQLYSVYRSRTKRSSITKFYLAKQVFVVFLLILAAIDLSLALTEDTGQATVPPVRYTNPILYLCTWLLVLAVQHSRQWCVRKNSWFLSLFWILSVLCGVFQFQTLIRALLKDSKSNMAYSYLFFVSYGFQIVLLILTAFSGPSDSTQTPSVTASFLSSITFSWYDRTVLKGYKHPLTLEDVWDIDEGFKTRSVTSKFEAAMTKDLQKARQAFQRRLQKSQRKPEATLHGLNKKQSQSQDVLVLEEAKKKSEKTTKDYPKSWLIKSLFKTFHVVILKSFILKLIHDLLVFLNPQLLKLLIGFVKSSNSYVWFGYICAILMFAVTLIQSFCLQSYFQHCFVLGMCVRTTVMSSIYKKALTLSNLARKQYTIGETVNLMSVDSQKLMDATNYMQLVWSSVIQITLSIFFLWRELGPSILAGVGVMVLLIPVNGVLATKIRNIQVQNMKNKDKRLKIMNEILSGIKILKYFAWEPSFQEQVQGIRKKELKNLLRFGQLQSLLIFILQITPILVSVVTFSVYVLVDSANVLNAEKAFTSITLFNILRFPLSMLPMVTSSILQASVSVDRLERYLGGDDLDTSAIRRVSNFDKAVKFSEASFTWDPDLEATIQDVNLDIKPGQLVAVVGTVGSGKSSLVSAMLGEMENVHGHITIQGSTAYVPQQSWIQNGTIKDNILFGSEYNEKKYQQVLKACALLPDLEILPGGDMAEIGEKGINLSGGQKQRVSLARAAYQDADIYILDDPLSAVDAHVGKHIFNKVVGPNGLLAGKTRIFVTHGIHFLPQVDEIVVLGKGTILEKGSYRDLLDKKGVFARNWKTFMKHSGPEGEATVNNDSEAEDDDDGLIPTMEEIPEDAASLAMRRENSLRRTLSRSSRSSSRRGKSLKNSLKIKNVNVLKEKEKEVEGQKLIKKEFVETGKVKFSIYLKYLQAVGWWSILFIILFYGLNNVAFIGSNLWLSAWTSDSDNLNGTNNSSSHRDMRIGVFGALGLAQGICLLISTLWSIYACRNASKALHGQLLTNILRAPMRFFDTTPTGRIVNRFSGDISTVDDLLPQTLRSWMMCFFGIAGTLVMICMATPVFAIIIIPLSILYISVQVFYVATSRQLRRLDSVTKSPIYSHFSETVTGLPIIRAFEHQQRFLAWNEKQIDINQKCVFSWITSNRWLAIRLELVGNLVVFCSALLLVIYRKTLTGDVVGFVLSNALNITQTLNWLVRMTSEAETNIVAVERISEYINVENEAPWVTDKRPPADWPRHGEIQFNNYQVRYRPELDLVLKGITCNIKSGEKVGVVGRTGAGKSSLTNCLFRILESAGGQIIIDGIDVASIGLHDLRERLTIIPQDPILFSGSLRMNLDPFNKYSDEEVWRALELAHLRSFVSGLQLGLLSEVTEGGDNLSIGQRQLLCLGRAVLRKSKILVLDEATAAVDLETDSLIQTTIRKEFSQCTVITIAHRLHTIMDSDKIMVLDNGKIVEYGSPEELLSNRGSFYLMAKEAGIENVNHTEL
Molecule,Activity (Bile salt export pump [1]),Ki (Bile salt export pump [2]),other results
C[C@H](CCC(=O)NCC(=O)O)[C@H]1CC[C@H]2[C@@H]3[C@H](O)C[C@@H]4C[C@H](O)CC[C@]4(C)[C@H]3CC[C@]12C [GLYCOCHENODEOXYCHOLATE],substrate [+],,
CO[C@H]1/C=C/O[C@@]2(C)Oc3c(C)c(O)c4c(O)c(c(/C=N/N5CCN(C)CC5)c(O)c4c3C2=O)NC(=O)/C(C)=C\C=C\[C@H](C)[C@H](O)[C@@H](C)[C@@H](O)[C@@H](C)[C@H](OC(C)=O)[C@@H]1C [RIFAMPIN],,11.9 µM,
C[C@H](CCC(=O)NCCS(=O)(=O)O)C1CC[C@H]2[C@@H]3CC[C@@H]4C[C@H](OS(=O)(=O)O)CC[C@]4(C)[C@H]3CC[C@]12C (some centres undefined),,,Activity [3]: substrate [+]
C[C@H](CCC(=O)NCCS(=O)(=O)O)[C@H]1CC[C@H]2[C@@H]3CC[C@@H]4C[C@H](O)CC[C@]4(C)[C@H]3C[C@H](O)[C@]12C [TAURODEOXYCHOLIC ACID],substrate [+],,
C[C@H](CCC(=O)NCC(=O)O)[C@H]1CC[C@H]2[C@@H]3[C@H](O)C[C@@H]4C[C@H](O)CC[C@]4(C)[C@H]3C[C@H](O)[C@]12C [GLYCOCHOLIC ACID],substrate [+],,
COc1ccc(Cl)cc1C(=O)NCCc1ccc(S(=O)(=O)NC(=O)NC2CCCCC2)cc1 [GLYBURIDE],,6.1 µM,
CO[C@H]1/C=C/O[C@@]2(C)Oc3c(C)c(O)c4c(O)c(cc(O)c4c3C2=O)NC(=O)/C(C)=C\C=C\[C@H](C)[C@H](O)[C@@H](C)[C@@H](O)[C@@H](C)[C@H](OC(C)=O)[C@@H]1C [RIFAMYCIN],,3.8 µM,
Bile salt export pump (Rattus norvegicus) (protein) MSDSVILRSVKKFGEENHAFESDGSHNNDKKSRLQDKMKEGDIRVGFFELFRFSSSKDIWLMLMGGVCALLHGMAQPGILIIFGIMTDIFIKYDIERQELEIPGKACVNNTIVWINSSFHQNMTNGTVCGLVDIESEMIKFSGIYAGVGMTVLILGYFQIRLWVITGARQIRRMRKIYFRRIMRMEIGWFDCTSVGELNSRFADDIEKINDAIADQLAHFLQRMSTAMCGLLLGFYRGWKLTLVILAVSPLIGIGAAVIGLSIAKFTELELKAYAKAGSIADEVLSSIRTVAAFGGENKEVERYEKNLVFAQRWGIWKGMVMGFFTGYMWCLIFFCYALAFWYGSTLVLDEEEYTPGTLVQIFLCVILAAMNIGHASSCLEIFSTGCSAATNIFQTIDRQPVIDCMSGDGYKLDRIKGEIEFHNVTFHYPSRPDVKILDNLSMVIKPGETTALVGSSGAGKSTALQLIQRFYDPCEGMVTLDGHDIRSLNIRWLRDQIGIVEQEPVLFSTTIAENIRFGREDATMEDIVQAAKDANAYNFIMALPQQFDTLVGEGGGQMSGGQKQRVAIARALIRNPKILLLDMATSALDNESEARVQEALNKIQHGHTIISVAHRLSTVRAADVIIGFEHGVAVERGTHEELLERKGVYFMLVTLQSQGDNAHKETSIMGKDATEGGTLERTFSRGSYRDSLRASIRQRSKSQLSLLTHDPPLAVADHKSSYKDSKDNDVLVEEVEPAPVRRILKYNIPEWHYILVGSLSAAINGAVTPIYSLLFSQLLGTFSLLDKEQQRSEIHSMCLFFVILGCVSIFTQFLQGYTFAKSGELLTKRLRKFGFKAMLGQDIGWFDDLRNNPGVLTTRLATDASQVQGATGSQVGMMVNSFTNIIAALLIAFFFSWKLSLIITIFFPFLALSGAVQTKMLTGFASQDKQALEKAGQITSEALSNIRTVAGIGVEGRFIKAFEVELQTSYKTAVRKANIYGLCFAFSQGIAFLANSAAYRYGGYLIAYEGLGFSHVFRVVSSVALSATAVGRTFSYTPSYAKAKISAARFFQLLDRKPPINVYSEAGEKWDNFQGKIDFIDCKFTYPSRPDIQVLNGLSVSVNPGQTLAFVGSSGCGKSTSIQLLERFYDPDQGTVMIDGHDSKKVNIQFLRSNIGIVSQEPVLFDCSIMDNIKYGDNTKEISVERAIAAAKQAQLHDFVMSLPEKYETNVGIQGSQLSRGEKQRIAIARAIVRDPKILLLDEATSALDTESEKTVQTALDKAREGRTCIVIAHRLSTIQNSDIIAVVSQGVVIEKGTHEKLMAQKGAYYKLVITGAPIS,,,Km [4]: 2.2 µM; Km [5]: 4.1 µM
